What all share (format): cell-based, human
In assay [1] the test system is lung cancer cell line A549. In words: MTT cytotoxicity assay, A549. To be noted: A549 cells, 8000 cells/well, 24 h incubation with compound, absorbance 490 nm, read-out: IC50 (μmol/L) A549. The text has this: (§1) A small library derived from 6a–b, 9 and 10a–c was obtained by hydrolysis of the macrocycles and condensation with amines. The anti-tumor activities for lung cancer cell line A549, breast cancer cell line MDA-MB-231 and hepatocarcinoma cell line Hep G2 of all these new compounds were screened in vitro by an MTT assay. Most of the compounds show some inhibitory activities against A549, MDA-MB-231 and Hep G2. […] In the future, further structure–activity relationship studies will be performed to determine how the substituents affected the anti-tumor activity and to design the best chemical structure in the future.
(§2) The human lung cancer cell line A549, breast cancer cell line MDA-MB-231 and hepatocarcinoma cell line Hep G2 were cultured in Dulbecco’s modified Eagle’s medium (DMEM) supplemented with antibiotics (penicillin 50 U/mL; streptomycin 50 µg/mL) and 10% FCS. The incubation was at 37 °C in a humidified atmosphere of 5% CO2 in air before experiments. Cells were first seeded at a density of 8000 cells/well in a 96-well plate for 48 hours. Solutions containing respective concentrations of compounds were added into wells and incubation continued for another 24 hours. After that, the MTT (3-(4,5-dimethylthiazol-2-yl)-2,5-diphenyltetrazolium bromide) dye stock solution (10 μL, 5 mg/mL) was added to each well. After 4 h, the supernatant was removed and DMSO (100 μL) was added to solubilize the MTT. The absorbance was measured at a wave length of 490 nm (A490nm) on an ELISA microplate reader. Results were expressed as IC50 values.

Assay [2] relates to hepatocarcinoma cell line Hep G2. In words: MTT cytotoxicity assay, Hep G2. To be noted: 8000 cells/well, 24 h incubation with compound, absorbance 490 nm, read-out: IC50 (μmol/L) Hep G2.
Excerpt: as §1, §2

Assay [3] relates to breast cancer cell line MDA-MB-231. As to the kind of experiment: MTT cytotoxicity assay, MDA-MB-231. To be noted: MDA-MB-231 cells, 8000 cells/well, 24 h incubation with compound, absorbance 490 nm, read-out: IC50 (μmol/L) MDA-MB-231.
Excerpt: as §1, §2
(Tetrazolium assays rely on reduction of a dye to a coloured formazan, in cell work by metabolically active cells.)

The mark [4] stands for this setting: Homo sapiens, HepG2, Hep G2 cells.

These results are taken from PMC6274554, “Synthetic Strategy and Anti-Tumor Activities of Macrocyclic Scaffolds Based on 4-Hydroxyproline” (Molecules, 2016).

Like-named read-outs stand apart in the source and are kept apart here.

With `NC(=O)[C@@H]1C[C@@H]2CN1C(=O)c1cccc(c1)OCCCCO2` [Compound 35, (8R,10S)-12-Oxo-2,7-dioxa-11-aza-tricyclo[11.3.1.1^8,11]octadecane-1(17),13,15-triene-10-carboxamide], the values for the IC50 in assay [1] (Homo sapiens), in assay [2] (setting [4]) and in assay [3] (Homo sapiens) were 89.5 µmol/L, 91.5 µmol/L and 90.5 µmol/L, respectively.
For the molecule `O=C(Nc1ccccc1)[C@@H]1C[C@@H]2CN1C(=O)c1cccc(c1)OCCn1cc(nn1)CO2` [Compound 24, (11R,13S)-15-Oxo-N-phenyl-2,10-dioxa-5,6,7,14-tetraaza-tetracyclo[14.3.1.1^5,8.1^11,14]docosane-6,8(21),1(20),16,18-pentaene-13-carboxamide], the results for the IC50 in assay [1], in assay [2] (Hep G2 cells) and in assay [3] were 45.7 µmol/L, 46.3 µmol/L and 35.6 µmol/L, respectively.
For the molecule `NC(=O)[C@@H]1C[C@@H]2CN1C(=O)c1cccc(c1)OCCn1cc(nn1)CO2` [Compound 23, (11R,13S)-15-Oxo-2,10-dioxa-5,6,7,14-tetraaza-tetracyclo[14.3.1.1^5,8.1^11,14]docosane-6,8(21),1(20),16,18-pentaene-13-carboxamide], the IC50 in assay [1] came out at 26.8 µmol/L; in assay [2] (Hep G2 cells) it was 37.3 µmol/L; in assay [3] it was 29.9 µmol/L.
As to `NC(=O)[C@@H]1C[C@@H]2CN1C(=O)c1cccc(c1)OCCn1nncc1CO2` [Compound 27, (12R,14S)-16-Oxo-2,11-dioxa-5,6,7,15-tetraaza-tetracyclo[15.3.1.1^12,15.0^5,9]docosane-6,8,1(21),17,19-pentaene-14-carboxamide], the figures for the IC50 in assay [1] (Homo sapiens), in assay [2] (setting [4]) and in assay [3] (Homo sapiens) were 41.3 µmol/L, 34.7 µmol/L and 28 µmol/L, respectively.
For `O=C(Nc1ccccc1)[C@@H]1C[C@@H]2CN1C(=O)c1cccc(c1)OCCCCCO2` [Compound 40, (9R,11S)-13-Oxo-N-phenyl-2,8-dioxa-12-aza-tricyclo[12.3.1.1^9,12]nonadecane-1(18),14,16-triene-11-carboxamide], in that order: 88 µmol/L, 68.4 µmol/L and 76.4 µmol/L.
Turning to `O=C(Nc1ccccc1)[C@@H]1C[C@@H]2CN1C(=O)c1cccc(c1)OC/C=C\CO2` [Compound 32, (4Z,8R,10S)-12-Oxo-N-phenyl-2,7-dioxa-11-aza-tricyclo[11.3.1.1^8,11]octadecane-4,1(17),13,15-tetraene-10-carboxamide], the IC50 was found to be 4.76 µmol/L in assay [1] (Homo sapiens), 26.3 µmol/L in assay [2] (setting [4]) and 9.67 µmol/L in assay [3] (Homo sapiens).
On the same counts, the results for `CC(C)CNC(=O)[C@@H]1C[C@@H]2CN1C(=O)c1cccc(c1)OCCCCCO2` [Compound 41, (9R,11S)-13-Oxo-N-isobutyl-2,8-dioxa-12-aza-tricyclo[12.3.1.1^9,12]nonadecane-1(18),14,16-triene-11-carboxamide] are 34.9 µmol/L, above 100 µmol/L and 47.3 µmol/L.
Consider `O=C(O)[C@@H]1C[C@@H]2CN1C(=O)c1cccc(c1)OCCn1cc(nn1)CO2` [Compound 22, (11R,13S)-15-Oxo-2,10-dioxa-5,6,7,14-tetraaza-tetracyclo[14.3.1.1^5,8.1^11,14]docosane-6,8(21),1(20),16,18-pentaene-13-carboxylic acid], for which the IC50 worked out at 32.2 µmol/L in assay [1], 44.2 µmol/L in assay [2] (Hep G2 cells) and 45.1 µmol/L in assay [3].
Consider `CC(C)CNC(=O)[C@@H]1C[C@@H]2CN1C(=O)c1cccc(c1)OC/C=C\CO2` [Compound 33, (4Z,8R,10S)-12-Oxo-N-isobutyl-2,7-dioxa-11-aza-tricyclo[11.3.1.1^8,11]octadecane-4,1(17),13,15-tetraene-10-carboxamide], for which the IC50 was found to be 2.55 µmol/L in assay [1] (Homo sapiens), 41.1 µmol/L in assay [2] (setting [4]) and 11.9 µmol/L in assay [3] (Homo sapiens).
Turning to `O=C(Nc1ccccc1)[C@@H]1C[C@@H]2CN1C(=O)c1cccc(c1)OCCCCO2` [Compound 36, (8R,10S)-12-Oxo-N-phenyl-2,7-dioxa-11-aza-tricyclo[11.3.1.1^8,11]octadecane-1(17),13,15-triene-10-carboxamide], the IC50 turned out to be 54.3 µmol/L in assay [1] (Homo sapiens), 95.4 µmol/L in assay [2] (setting [4]) and 85.3 µmol/L in assay [3] (Homo sapiens).
`N.N.[Cl][Pt][Cl]` [Cisplatin, reference compound]: the IC50 in assay [1] was 15.4 µmol/L; in assay [2] (Hep G2 cells), 17.4 µmol/L; in assay [3] it was 19.7 µmol/L.
For `O=C(Nc1ccccc1)[C@@H]1C[C@@H]2CN1C(=O)c1cccc(c1)OCCn1nncc1CO2` [Compound 28, (12R,14S)-16-Oxo-N-phenyl-2,11-dioxa-5,6,7,15-tetraaza-tetracyclo[15.3.1.1^12,15.0^5,9]docosane-6,8,1(21),17,19-pentaene-14-carboxamide], the IC50 is 46.3 µmol/L in assay [1] (Homo sapiens), 36.3 µmol/L in assay [2] (setting [4]) and 43.7 µmol/L in assay [3] (Homo sapiens).
On to `O=C(O)[C@@H]1C[C@@H]2CN1C(=O)c1cccc(c1)OC/C=C\CO2` [Compound 30, (4Z,8R,10S)-12-Oxo-2,7-dioxa-11-aza-tricyclo[11.3.1.1^8,11]octadecane-4,1(17),13,15-tetraene-10-carboxylic acid], for which the IC50 in assay [1] (Homo sapiens) came to 11.2 µmol/L; in assay [2] (setting [4]), 23.2 µmol/L; in assay [3] (Homo sapiens) it was 10.3 µmol/L.
On the same counts, the results for `O=C(O)[C@@H]1C[C@@H]2CN1C(=O)c1cccc(c1)OCCCCO2` [Compound 34, (8R,10S)-12-Oxo-2,7-dioxa-11-aza-tricyclo[11.3.1.1^8,11]octadecane-1(17),13,15-triene-10-carboxylic acid] are above 100 µmol/L, 96.2 µmol/L and 96.2 µmol/L.
For the molecule `CC(C)CNC(=O)[C@@H]1C[C@@H]2CN1C(=O)c1cccc(c1)OCCCCCCO2` [Compound 45, (10R,12S)-14-oxo-N-Isobutyl-2,9-dioxa-13-aza-tricyclo[13.3.1.1^10,13]eicosane-1(19),15,17-triene-12-carboxamide], the IC50 in assay [1] (Homo sapiens) is 93.6 µmol/L; in assay [2] (setting [4]) it was 89.6 µmol/L; in assay [3] (Homo sapiens) it was 88.7 µmol/L.
In the case of `O=C(O)[C@@H]1C[C@@H]2CN1C(=O)c1cccc(c1)OCCCCCCO2` [Compound 42, (10R,12S)-14-Oxo-2,9-dioxa-13-aza-tricyclo[13.3.1.1^10,13]eicosane-1(19),15,17-triene-12-carboxylic acid], the IC50 in assay [1] (Homo sapiens) was above 100 µmol/L; in assay [2] (setting [4]), 87.4 µmol/L; in assay [3] (Homo sapiens), above 100 µmol/L.
Regarding `NC(=O)[C@@H]1C[C@@H]2CN1C(=O)c1cccc(c1)OCCCCCO2` [Compound 39, (9R,11S)-13-Oxo-2,8-dioxa-12-aza-tricyclo[12.3.1.1^9,12]nonadecane-1(18),14,16-triene-11-carboxamide], the IC50 in assay [1] (Homo sapiens) was 63.7 µmol/L; in assay [2] (setting [4]), above 100 µmol/L; in assay [3] (Homo sapiens), 57.3 µmol/L.
Turning to `NC(=O)[C@@H]1C[C@@H]2CN1C(=O)c1cccc(c1)OC/C=C\CO2` [Compound 31, (4Z,8R,10S)-12-Oxo-2,7-dioxa-11-aza-tricyclo[11.3.1.1^8,11]octadecane-4,1(17),13,15-tetraene-10-carboxamide], the IC50 in assay [1] (Homo sapiens) is 5.21 µmol/L; in assay [2] (setting [4]), 31.9 µmol/L; in assay [3] (Homo sapiens) it was 12.3 µmol/L.
For the molecule `O=C(O)[C@@H]1C[C@@H]2CN1C(=O)c1cccc(c1)OCCCCCO2` [Compound 38, (9R,11S)-13-Oxo-2,8-dioxa-12-aza-tricyclo[12.3.1.1^9,12]nonadecane-1(18),14,16-triene-11-carboxylic acid], the results for the IC50 in assay [1] (Homo sapiens), in assay [2] (setting [4]) and in assay [3] (Homo sapiens) were above 100 µmol/L, above 100 µmol/L and 92.3 µmol/L, respectively.
In the case of `O=C(Nc1ccccc1)[C@@H]1C[C@@H]2CN1C(=O)c1cccc(c1)OCCCCCCO2` [Compound 44, (10R,12S)-14-Oxo-N-phenyl-2,9-dioxa-13-aza-tricyclo[13.3.1.1^10,13]eicosane-1(19),15,17-triene-12-carboxamide], the IC50 in assay [1] (Homo sapiens) is 98.2 µmol/L; in assay [2] (setting [4]), 88.1 µmol/L; in assay [3] (Homo sapiens) it was 23.1 µmol/L.
Regarding `NC(=O)[C@@H]1C[C@@H]2CN1C(=O)c1cccc(c1)OCCCCCCO2` [Compound 43, (10R,12S)-14-Oxo-2,9-dioxa-13-aza-tricyclo[13.3.1.1^10,13]eicosane-1(19),15,17-triene-12-carboxamide], the IC50 in assay [1] (Homo sapiens) was 69.7 µmol/L; in assay [2] (setting [4]), 64.9 µmol/L; in assay [3] (Homo sapiens) it was 66 µmol/L.
On to `CC(C)CNC(=O)[C@@H]1C[C@@H]2CN1C(=O)c1cccc(c1)OCCn1cc(nn1)CO2` [Compound 25, (11R,13S)-15-Oxo-N-isobutyl-2,10-dioxa-5,6,7,14-tetraaza-tetracyclo[14.3.1.1^5,8.1^11,14]docosane-6,8(21),1(20),16,18-pentaene-13-carboxamide], for which the IC50 in assay [1] was 37.7 µmol/L; in assay [2] (Hep G2 cells) it was 48.3 µmol/L; in assay [3], 42.5 µmol/L.
